Patent publication US20030203963A1, “Antimicrobial agent” (priority 2001, published 2003)

Columns and labels:
B. subtilis Campden = assay: Bioscreen growth inhibition test; assay type: cell-based, Bacillus subtilis; settings: BS010510, 24 h at 30° C., APP20010213
Method: For broth cultures and Bioscreen testing most bacteria were grown in Brain Heart Infusion (BHI, Oxoid, pH 7.4). Lactobacillus sake A10 was grown in de Man, Rogosa, Sharpe medium ([…], Oxoid). Yeasts were grown in Sabouraud Liquid medium (SLM, Oxoid). Most bacteria were cultured at 30° C. Lactic acid bacteria were grown on solid medium in enriched CO2 atmosphere. Clostridium species were grown in Reinforced Clostridial Medium (RCM) at 37° C. anaerobically. Brochothrix thermosphacta fungi and yeasts were grown at 25° C. Fungi were cultured on Malt Extract Agar (MEA, Oxoid).
An automated Microbiology Reader Bioscreen C was used to measure growth curves of the strains in the presence and absence of APP. The Bioscreen C measures the development of turbidity (i.e. growth) kinetically by vertical photometry in 200 wells of a honeycomb microtitre plate, simultaneously. The system consists of a Bioscreen C analyser, which is an incubator and measurement unit, integrated with a PC, software (BioLink v 5.30), printer and a ‘Honeycomb 2’ cuvette multiwell plate. Growth curve data can be analysed within the BioLink software or exported to programs such as Excel.
Broth culture media were dispensed in 270 μl volumes into the wells as directed. […] (depending on the micro-organism under investigation) with readings taken every 20 minutes after the trays were shaken. […]

L. monocytogenes 272 = assay: Chicken soup trial at 20° C.; assay type: cell-based, Listeria monocytogenes; settings: chicken soup at 20° C., TCSM010430, APP20010213
Source text: (§1) A local supermarket brand of cream of chicken soup was used as a model food system. 600 g packs were purchased from the local supermarket. This was a ‘fresh home-made type’ of soup that was stored in the chill cabinet, with a short shelf life. It was chosen because it is a rich, nutritious food system containing a range of food components including meat, dairy and vegetable.
(§2) Ingredients were labelled as: chicken stock (water, duck fat, chicken, salt, flavourings, yeast extracts, pork gelatine, glucose syrup, vegetable concentrate, milk protein, sugar, malto-dextrin, vegetable oil, citric acid, lactose, chicken fat), ilk, chicken (9%), cream (8%), onion, potato, vegetable oil, modified maize starch, wheat flour, lemon juice, salt, white pepper. pH 5.912. Protein: 3.3%; carbohydrate: 4.7%; fat: 7.2%; fibre: 0.2%; sodium: 0.1%
(§3) For the test the soup was mixed 2:1 in water (to facilitate sampling and mixing) and sterilised by autoclaving at 121° C. for 15 minutes. For each experiment the pH of the soup was recorded; this was between pH 5.79-5.88.
For TCS010430/20 (incubated at 20° C.) samples were prepared in 18.8 g quantities, to which 1 g of a suitable filter-sterilised APP stock solution was added and an appropriately diluted 0.2 ml inoculum. Great care was again taken to ensure homogeneous distribution of the APP and micro-organisms. […]

Ps. fluorescens 327 = assay: Test in cooked minced chicken slurry; assay type: cell-based, Pseudomonas fluorescens; settings: 2000 ppm, minced chicken slurry at 8° C.
Method: 1 kg of minced chicken (mainly lean meat) was purchased from the local butcher. This was mixed with 1 litre of BHI, mixed and dispensed as 100 g samples prior to autoclaving. When still warm, the meat was re-mixed thoroughly. When cooked, the meat was inoculated with 1 ml of 10^5 spores or cells (from an overnight broth), and re-mixed. The samples were then divided into 3×25 g portions, to which 0.5 ml of filter-sterilised APP20010215 was added (as 5% or 10% stock solutions) or water. An initial viable count was taken, and the samples then incubated at 8° C. and tested twice weekly. The pH of the chicken slurry was 6.42.

B. cereus 204 = assay: Test in cooked minced beef slurry; assay type: cell-based, Bacillus cereus; settings: minced beef slurry at 8° C., pH 6.24, TCM010619
Method: 1 kg of minced beef, purchased from the local butcher, was mixed with 1 litre of BHI. 200 g portion of this meat slurry was autoclaved. When the meat had cooled, the pH was recorded (pH 6.24), and each pot was inoculated with 2.0 ml of 10^5 spores or cells and the meat re-mixed thoroughly. Each inoculated 200 g pot was distributed as 3×50 g portions. To each pot 1 ml of SDW, 5% or 10% APP (Batch No. APP20010215) was added, and the meat was again mixed thoroughly. An initial viable count was performed, the meat was incubated at 8° C. and sampled twice weekly. The pH of the cooked minced beef slurry was 6.24.

Ps. fluorescens 3756 = assay: Chicken soup trial at 8° C.; assay type: cell-based, Pseudomonas fluorescens; settings: chicken soup at 8° C.
Source text: as §1, §2, §3
For TCS010412/8 (which was incubated at 8° C.), APP batch number APP20010213 (concentration 169 mg APP/ml) was used to prepare tests containing 0, 2000 or 4000 ppm APP. 5 g of filter-sterilised APP stock solution was added to 94 g of soup, mixed and then 1 ml of a diluted inoculum suspension (cells or spores as appropriate) was added to give a test inoculum level of 10^3 cfu/g. The soup mixture was shaken vigorously to ensure homogeneous distribution of the APP and micro-organisms. The tests were tested by viable count and then incubated at 8° C. and tested on a twice-weekly basis.
For TCS010521/8 (incubated at 8° C.), samples were prepared in 27.8 g quantities. 1.5 g of an APP stock solution was added, and the tests inoculated with 0.3 ml of a suitably diluted cell or spore suspension to give a final inoculum of ca. 10^3 cfu/g. APP was tested at 0, 500 and 1000 ppm, and batch number APP20010213 (at 169 mg/ml) was used. The tests were sampled by viable count and then incubated at 8° C. and tested on a twice-weekly basis.

O=C1CC(CO)OC=C1O (centres unmarked) [APP, Ascopyrone P]
APP level causing significant inhibition (B. subtilis Campden): 2000 ppm | APP level causing total inhibition (B. subtilis Campden): 3000 ppm | Effect on growth (L. monocytogenes 272; 1000 ppm): No significant effect by 1000 ppm | Effect on growth (L. monocytogenes 272; 2000 ppm): No total inhibition but reduction of growth rate only by 2000 | 10^6 reached at (Ps. fluorescens 327; TCC010704, controls 3 d): 10 d | Effect on growth (Ps. fluorescens 327; pH 6.42, TCC010704): No total inhibition | Effect on growth (B. cereus 204; 1000 ppm): 1000 ppm extended lag phase. | Growth to 10^6 delayed by (B. cereus 204; 2000 ppm): 2000 ppm delayed growth to 10^6 by 7 d. | Effect on growth (Ps. fluorescens 3756; 500 ppm, TCSM010521, APP215): Little effect with 500 ppm | Counts undetectable (Ps. fluorescens 3756; 1000 ppm, TCSM010521, APP215): At 1000 ppm counts undetectable >3 d | Total inhibition for (Ps. fluorescens 3756; 1000 ppm, TCSM010521, APP215): Total inhibition by 1000 ppm for >27 days. | Total inhibition for (Ps. fluorescens 3756; 2000 ppm, TCS010412, APP20010213): Total inhibition by 2000 and 4000 ppm for >60 days. | Total inhibition for (Ps. fluorescens 3756; 4000 ppm, TCS010412, APP20010213): Total inhibition by 2000 and 4000 ppm for >60 days. | Counts undetectable from day (Ps. fluorescens 3756; APP samples (2000, 4000 ppm), TCS010412, APP20010213): Counts undetectable from day 1 in APP samples
